We go through 2 compounds from publication PMC10113987, “A tool for nuclear imaging of the SARS-CoV-2 entry receptor: molecular model and preclinical development of ACE2-selective radiopeptides” (EJNMMI Research, 2023).

The test system of series [1] is HEK-ACE2/HEK-ACE-xenografted mice. In words: Biodistribution in HEK-ACE2/HEK-ACE xenografted mice. The format is in vivo, mouse. On the procedure: (§1) All applicable international, national, and/or institutional guidelines for the care and use of animals were followed. In particular, all animal experiments were carried out according to the guidelines of the Swiss Regulations for Animal Welfare. Preclinical studies have been ethically approved by the Cantonal Committee of Animal Experimentation and permitted by the responsible cantonal authorities (License N° 75743). Five-week-old female CD1/nude mice and female immunocompetent FVB mice were obtained from Charles River Laboratories (Sulzfeld, Germany) and fed with standard rodent chow ad libitum. CD1/nude were subcutaneously inoculated with HEK-ACE2 cells (6–8 × 10^6 cells in 100 µL PBS) on the right shoulder and approximately one week later with HEK-ACE (4 × 10^6 cells in 100 µL PBS) on the left shoulder. Imaging and biodistribution studies were performed 2–4 weeks later when the xenografts reached a size of 100–300 mm^3.
(§2) Biodistribution studies in xenograft-bearing mice were performed 2–4 weeks after cell inoculation. Mice were intravenously injected with [^67Ga]Ga-DOTA-DX600, [^67Ga]Ga-NODAGA-DX600, [^67Ga]Ga-HBED-CC-DX600 or [^67Ga]Ga-DOTA-BPP9a (3 MBq, 0.5 nmol, 100 µL) diluted in NaCl 0.9% containing 0.05% BSA. The mice were sacrificed 3 h after administration of the radiopeptides. Selected tissues and organs were collected, weighed and counted using a γ-counter. The results were listed as a percentage of the injected activity per gram of tissue mass (% IA/g), using counts of a defined volume of the original injection solution measured simultaneously, resulting in decay-corrected values. Statistical analysis was performed by applying a one‐way ANOVA test with a Tukey’s multiple comparisons post‐test (GraphPad Prism software, version 8.3.1).

Assay in series [2]: as above
The format is in vivo, mouse. As to conditions: female, CD1/nude, mouse, iv, 0.5 nmol, total radioactivity, 3 h after i.v. injection, decay-corrected, n = 3. On the procedure:
as §1, §2

In series [3] the test system is HEK-ACE2/HEK-ACE-xenografted mice. As to the kind of experiment: SPECT/CT imaging and quantification of retained activity in HEK-ACE2/HEK-ACE xenografted mice. The format is in vivo, mouse. As to conditions: for Activity retained in the kidneys relative to the 1 h p.i.-timepoint: SPECT/CT quantification, non-decay-corrected. On the procedure:
as §1
SPECT/CT imaging was performed using a four-head, multiplexing, multipinhole small-animal SPECT camera (NanoSPECT/CT™, Mediso Medical Imaging Systems, Budapest, Hungary). Each head was outfitted with a tungsten-based aperture of nine 1.4 mm-diameter pinholes and a thickness of 10 mm. CT scans of 7.5 min duration were followed by SPECT scans of ~ 50 min performed 1 h, 3 h and 24 h after injection of the respective radiopeptide (10 MBq, 0.5 nmol, 100 μL), diluted in NaCl 0.9% containing 0.05% BSA. During the scan, mice were anesthetized with a mixture of isoflurane and oxygen. The images were acquired using Nucline software (version 1.02, Mediso Ltd., Budapest, Hungary). The real-time CT reconstruction used a cone-beam-filtered backprojection. The reconstruction of SPECT data was performed with the HiSPECT software (version 1.4.3049, Scivis GmbH, Göttingen, Germany) using γ-energies of 93.20 keV (± 10%), 184.60 keV (± 10%) and 300.00 keV (± 10%) for gallium-67. All images were prepared using the VivoQuant post-processing software (version 3.0, inviCRO Imaging Services and Software, Boston, US). A Gauss post-reconstruction filter (full width at half maximum, 1 mm) was applied, and the scale of activity for gallium-67 was set as indicated on the SPECT/CT images. In order to estimate the wash-out of the DX600-based radiopeptides from the HEK-ACE2 xenografts and kidneys over time, the absolute amount of activity was determined in these tissues using the VivoQuant quantification tool. The accumulated activity (non-decay-corrected value in MBq) in the xenografts and kidneys, respectively, obtained at the 1 h p.i. timepoint was set as 100%. The percentage of activity retained in these tissues was determined at 3 h and 24 h p.i. based on the absolute activity determined at these timepoints.

The subject of series [4] is FVB mice. As to the kind of experiment: In vivo stability in immunocompetent FVB mice (TLC of blood plasma, urine, kidneys). As to conditions: 1 h p.i. On the set-up: species or system mouse. As to the method:
In order to investigate the stability of the radiopeptides, the ^67Ga-labeled DX600 peptides (20 MBq/nmol) were tested in immunocompetent FVB mice (10 MBq in 100 μL per mouse). Before sacrificing, blood was collected from each mouse 1 h after injection of the radiopeptides. After centrifugation, the blood plasma was analyzed using reversed phase TLC with citrate buffer (0.1 M, pH 5.5) as a mobile phase. The kidneys were collected and processed to investigate the presence of intact radiopeptides and potential metabolites using the same TLC system. The analysis of the chromatograms was performed as described for the in vitro plasma stability (Additional file 1).
Methods: Immunocompetent FVB mice were injected with the DX600-based radiopeptides (n=2). One hour later, urine was collected and blood was sampled from the retrobulbar vein followed by centrifugation (10 min, 200 rcf). A drop of urine and blood plasma was analyzed using the TLC method described for in vitro stability experiments above (reversed phase as stationary phase and citrate buffer pH 5.5 as mobile phase). The data were also confirmed using normal phase TLC. Kidneys of mice were collected, cut into small pieces, homogenized in 200 μL buffer solution (ice-cold methanol containing 0.025% NH4OH) and centrifuged (5 min, 2300 rcf, 4° C) as described by Boss et al.. An aliquot of the supernatant of each sample was developed using the same TLC method as for urine and blood plasma samples. The TLC plates were exposed to a phosphor screen which was afterwards read using a storage phosphor system (Cyclone Plus, PerkinElmer). The quantification of the signals was carried out using the OptiQuant software (version 5.0, Bright Instrument Co Ltd., PerkinElmer^TM). The obtained chromatograms were analyzed by determination of the peak area of the radiolabeled peptide, the released gallium-67 as well as degradation products of unknown structure. The quantity of the intact product was expressed as percentage of the sum of integrated peak areas of the entire chromatogram.

[5] abbreviates: 3 h after i.v. injection, decay-corrected, n = 3.
[6] abbreviates: HEK-ACE xenograft, read-out: Biodistribution: ACE xenograft (HEK-ACE).
Setting [7] is: blood, read-out: Biodistribution: blood.
Where [8] appears, read: bone, read-out: Biodistribution: bone.
Where [9] appears, read: heart, read-out: Biodistribution: heart.
Setting [10] is: intestines, read-out: Biodistribution: intestines.
The mark [11] stands for this setting: kidneys, read-out: Biodistribution: kidneys (renal retention).
Setting [12] is: liver, read-out: Biodistribution: liver.
[13] abbreviates: lung, read-out: Biodistribution: lung.
The mark [14] stands for this setting: muscle, read-out: Biodistribution: muscle.
Where [15] appears, read: salivary glands, read-out: Biodistribution: salivary glands.
[16] abbreviates: spleen, read-out: Biodistribution: spleen.
The mark [17] stands for this setting: stomach, read-out: Biodistribution: stomach.

Like-named read-outs stand apart in the source and are kept apart here. Positions of bridges follow the written chain, without caps; N, C: chain ends. Residues, ends and D or L forms follow the SMILES beside them. *: point of attachment. DOTA = O=C(O)CN1CCN(CC(=O)O)CCN(CC(=O)*)CCN(CC(=O)O)CC1; Ahx = NCCCCCC(=O)O Where only a bound is given, the exact number is not on record here.

`CC[C@H](C)[C@H](NC(=O)[C@H](CCC(N)=O)NC(=O)[C@@H]1CCCN1C(=O)[C@H](CCCNC(=N)N)NC(=O)[C@@H]1CCCN1C(=O)[C@H](Cc1c[nH]c2ccccc12)NC(=O)[C@H](CCC(=O)O)NC(=O)CCCCCNC(=O)CCCCCNC(=O)CN1CCN(CC(=O)O)CCN(CC(=O)O)CCN(CC(=O)O)CC1)C(=O)N1CCC[C@H]1C(=O)N1CCC[C@H]1C(=O)O` [[^67Ga]Ga-DOTA-BPP9a, metal not drawn] ({DOTA-Ahx-Ahx}-EWPRPQIPP-OH): the “Biodistribution: ACE2 xenograft (HEK-ACE2)” value was less than 0.5 % IA/g in series [1] (setting [5]) and 0.19 ± 0.19 % IA/g in series [1] (3 h after i.v. injection, decay-corrected, n = 3, listed as [^67Ga]Ga-DOTA- BPP9a). The tissue uptake at 3 h was found to be 3.17 ± 0.29 %ID/g in series [2] (setting [6]); 0.05 ± 0.01 %ID/g in series [2] (setting [7]); 0.04 ± 0.01 %ID/g in series [2] (setting [8]); 0.03 %ID/g in series [2] (setting [9]); 0.06 ± 0.02 %ID/g in series [2] (setting [10]); 3.22 ± 0.8 %ID/g in series [2] (setting [11]). Also, the tissue uptake at 3 h in series [2] (setting [12]) came out at 0.09 ± 0.01 %ID/g; in series [2] (setting [13]), 0.13 ± 0.03 %ID/g; in series [2] (setting [14]) it was 0.02 ± 0.01 %ID/g; in series [2] (setting [15]), 0.04 ± 0.01 %ID/g; in series [2] (setting [16]), 0.08 ± 0.04 %ID/g; in series [2] (setting [17]), 0.06 ± 0.05 %ID/g. Further, the “Uptake in HEK-ACE2 xenografts on SPECT/CT images” value in series [3] (1 h and 3 h after injection) was “no uptake”. Besides, in series [3] (1 h and 3 h after injection), the “Uptake in HEK-ACE xenografts on SPECT/CT images” value is listed as “accumulation”.

For `CC(=O)N[C@@H](CCCCNC(=O)CN1CCN(CC(=O)O)CCN(CC(=O)O)CCN(CC(=O)O)CC1)C(=O)NCC(=O)N[C@@H](CC(=O)O)C(=O)N[C@@H](Cc1ccc(O)cc1)C(=O)N[C@@H](CO)C(=O)N[C@@H](Cc1c[nH]cn1)C(=O)N[C@H]1CSSC[C@@H](C(=O)N[C@H](C(=O)N[C@@H](Cc2ccc(O)cc2)C(=O)N2CCC[C@H]2C(=O)N[C@@H](CC(=O)O)C(=O)N2CCC[C@H]2C(=O)N[C@@H](CCC(=O)O)C(=O)NCC(=O)NCC(=O)NCC(N)=O)[C@@H](C)O)NC(=O)[C@H](CCCCN)NC(=O)[C@H](Cc2c[nH]c3ccccc23)NC(=O)[C@H](Cc2c[nH]c3ccccc23)NC(=O)[C@@H]2CCCN2C(=O)[C@H](Cc2ccc(O)cc2)NC(=O)[C@H](Cc2ccc(O)cc2)NC(=O)[C@H](CCCNC(=N)N)NC(=O)[C@H](CC(C)C)NC(=O)[C@@H]2CCCN2C(=O)[C@H](CO)NC1=O` [[^67Ga]Ga-DOTA-DX600, metal not drawn] (Ac-K(DOTA)GDYSHCSPLRYYPWWKCTYPDPEGGG-NH2; disulfide 7-18), the “Release of gallium-67 from the chelator in blood plasma” value in series [4] is reported as 3.5 % of the total activity determined in the blood. The “Radiometabolites in kidney homogenates” value in series [4] (fraction of accumulated activity) was ~ 93%. Besides, the “Biodistribution: ACE xenograft (HEK-ACE)” value in series [1] (setting [5]) is given as 0.32 ± 0.18 % IA/g. Moreover, the HEK-ACE2 xenograft-to-kidney ratio in series [1] (3 h after injection) was found to be 0.45 ± 0.02. For the same compound, the tissue uptake at 3 h is 10.7 ± 0.4 %ID/g in series [2] (HEK-ACE2 xenograft, read-out: Biodistribution: ACE2 xenograft (HEK-ACE2)); less than 0.5 %ID/g in series [2] (setting [6]); 0.06 ± 0.01 %ID/g in series [2] (setting [7]); 0.06 ± 0.01 %ID/g in series [2] (setting [8]); 0.04 ± 0.01 %ID/g in series [2] (setting [9]); 0.09 ± 0.04 %ID/g in series [2] (setting [10]). Moreover, the tissue uptake at 3 h is roughly 24 %ID/g in series [2] (setting [11]); 0.22 ± 0.01 %ID/g in series [2] (setting [12]); 0.14 ± 0.06 %ID/g in series [2] (setting [13]); 0.02 %ID/g in series [2] (setting [14]); 0.05 ± 0.01 %ID/g in series [2] (setting [15]); 0.09 ± 0.01 %ID/g in series [2] (setting [16]). Further, in series [2] (setting [17]), the tissue uptake at 3 h was 0.04 ± 0.01 %ID/g. In addition, the “Activity retained in the kidneys relative to the 1 h p.i.-timepoint” value in series [3] (3 h p.i.) is listed as ~ 85%; in series [3] (24 h p.i.), 35–45%.
